Counter-ions that a name gives are not always drawn.

This test deals with T1, Cloned Neurokinin Receptor Subtype 2 Human (Homo sapiens, UniProt P21452).
T1 construct: purchased Biosignal Packard; host or cells: CHO cells
T1 sequence (P21452 1-398): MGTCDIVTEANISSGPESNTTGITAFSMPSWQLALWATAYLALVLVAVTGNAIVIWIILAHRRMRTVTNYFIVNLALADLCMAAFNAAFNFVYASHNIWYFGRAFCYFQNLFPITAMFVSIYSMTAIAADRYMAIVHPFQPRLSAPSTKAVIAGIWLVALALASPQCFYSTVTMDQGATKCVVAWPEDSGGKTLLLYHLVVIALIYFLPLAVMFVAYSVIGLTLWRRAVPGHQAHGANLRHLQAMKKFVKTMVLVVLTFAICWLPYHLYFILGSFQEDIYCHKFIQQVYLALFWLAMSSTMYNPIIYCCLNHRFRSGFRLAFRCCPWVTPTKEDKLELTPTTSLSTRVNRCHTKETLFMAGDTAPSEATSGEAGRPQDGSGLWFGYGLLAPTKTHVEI
The test can be described thus: NK-2 receptor-binding experiment ([3H]-SR48968, CHO cell membranes). The note with it: Table 3; inhibition of [3H]-SR48968 (0.85 nM) binding, pseudo-Hill analysis. The procedure: 2. NK-2 Receptor-binding Experiment
Cloned Neurokinin Receptor Subtype 2 Human (CHO cells, Biosignal Packard), [^3H]-SR48968 (Amersham, final concentration 0.85 nM), and a test compound were mixed with 20 mM HEPES buffer, and the mixture was incubated for 50 minutes at 27° C. After completion of incubation, membrane components were collected by means of an automatic filtration apparatus (Brandel) onto a GF/C glass fiber filter (Whatman).
Before use, in order to prevent non-specific binding, the glass fiber filter had been pre-treated with 0.1% polyethylene imine solution for about 4 hours.
The filter employed to collect the membrane components was transferred to a plastic vial containing UltimaGold MV (5 mL), and measured by means of a liquid scintillation counter (Packard, 2000CA) in terms of the radioactivity.
Percent radioactive ligand-receptor binding inhibition of each test compound was calculated by use of the following equation, and IC50 (nM) was determined through pseudo-Hill analysis.
Percent inhibition (%)=[1−(C−A)/(B−A)]×100
A: Radioactivity attributed to non-specific binding
B: Radioactivity without test compound
C: Radioactivity with test compound
`CN(CC(CCN1CCC2(CC1)c1ccccc1C[S+]2[O-])(c1ccc(Cl)c(Cl)c1)N(C)C(=O)C(=O)Nc1ccccc1Cl)C(=O)CC(F)(F)F` [Compound No. 9, N-(2-Chloro-phenyl)-N′-{1-(3,4-dichloro-phenyl)-1-{[methyl-(3,3,3-trifluoro-propionyl)-amino]-methyl}-3-{spiro[benzo(c)thiophene-1(3H),4′-piperidine]-(2S)-oxido}-1′-yl-propyl}-N′-methyl-oxalamide hydrochloride]: the IC50 was 7.2 nM.

In the case of `CN(CC(CCN1CCC2(CC1)c1ccccc1C[S+]2[O-])(c1ccc(Cl)c(Cl)c1)N(C)C(=O)Cc1ccccc1)C(=O)CC(F)(F)F` [Compound No. 14, N-[2-(3,4-Dichloro-phenyl)-2-(methyl-phenylacetyl-amino)-4-{spiro[benzo(c)thiophene-1(3H),4′-piperidine]-(2S)-oxido}-1′-yl-butyl]-3,3,3-trifluoro-N-methyl-propionamide hydrochloride], the IC50 was found to be 0.34 nM.

The compound `CN(C[C@](CCN1CCC2(CC1)c1ccccc1C[S@+]2[O-])(c1ccc(Cl)c(Cl)c1)N(C)C(=O)c1ccc(C(F)(F)F)cc1)C(=O)CC(F)(F)F` [Compound No. 31, N-{1-(3,3,3-trifluoro-N-methylpropanamido)-2-(S)-(3,4-dichlorophenyl)-4-[spiro(benzo(c)thiophene-(2S)-oxido-1(3H),4′-piperidin)-1′-yl]butan-2-yl}-N-methyl-4-trifluoromethylbenzamide hydrochloride] yielded an IC50 of 0.75 nM.

Turning to `CCN(C(=O)C(=O)N(C)[C@](CCN1CCC2(CC1)c1ccccc1C[S@+]2[O-])(CN(C)C(=O)CC(F)(F)F)c1ccc(Cl)c(Cl)c1)c1ccccc1` [Compound No. 25, N^1-{1-(3,3,3-trifluoro-N-methylpropanamido)-2-(S)-(3,4-dichlorophenyl)-4-[spiro(benzo(c)thiophene-(2S)-oxido-1(3H),4′-piperidin)-1′-yl]butan-2-yl}-N^1-methyl-N^2-ethyl-N^2-phenyloxalamide hydrochloride], the IC50 was found to be 0.58 nM.

Consider `CCN(C(=O)C(=O)N(C)[C@](CCN1CCC2(CC1)NC(=O)Cc1ccccc12)(CN(C)C(=O)C(C)(C)C)c1ccc(Cl)c(Cl)c1)c1ccccc1` [Compound No. 38, N^1-{1-(N-methyl-trimethylacetamide)-2-(S)-(3,4-dichlorophenyl)-4-[3-oxo-3,4-dihydro-2H-spiro(isoquinoline-1,4′-piperidin)-1′-yl]butan-2-yl}-N^1-methyl-N^2-ethyl-N^2-phenyloxalamide hydrochloride], for which the IC50 is 1.9 nM.

Take `CN(C[C@](CCN1CCC2(CC1)NC(=O)Cc1ccccc12)(c1ccc(Cl)c(Cl)c1)N(C)C(=O)c1ccccc1)C(=O)CC(F)(F)F` [Compound No. 22, N-{1-(3,3,3-trifluoro-N-methylpropanamido)-2-(S)-(3,4-dichlorophenyl)-4-[3-oxo-3,4-dihydro-2H-spiro(isoquinoline-1,4′-piperidin)-1′-yl]butan-2-yl}-N-methylbenzamide hydrochloride]: the IC50 stood at 0.95 nM.

Compound `CCN(C(=O)C(=O)N(C)[C@](CCN1CCC2(CC1)NC(=O)Cc1ccccc12)(CN(C)C(=O)C(C)C)c1ccc(Cl)c(Cl)c1)c1ccccc1` [Compound No. 40, N^1-{1-(N-methylisobutylamide)-2-(S)-(3,4-dichlorophenyl)-4-[3-oxo-3,4-dihydro-2H-spiro(isoquinoline-1,4′-piperidin)-1′-yl]butan-2-yl}-N^1-methyl-N^2-ethyl-N^2-phenyloxalamide hydrochloride] showed an IC50 of 0.73 nM.

Compound `CN(CC(CCN1CCC2(CC1)c1ccccc1CS2(=O)=O)(c1ccc(Cl)c(Cl)c1)N(C)C(=O)NC(c1ccccc1)c1ccccc1)C(=O)C(F)F` (stereo not drawn) [Compound No. 11, N-[2-(3-Benzhydryl-1-methyl-ureido)-2-(3,4-dichloro-phenyl)-4-{spiro[benzo(c)thiophene-1(3H),4′-piperidine]-2,2-dioxido}-1′-yl-butyl]-2,2-difluoro-N-methyl-acetamide hydrochloride] displayed an IC50 of 8.1 nM.

Compound `CN(C[C@](CCN1CCC2(CC1)NC(=O)Cc1ccccc12)(c1ccc(Cl)c(Cl)c1)N(C)C(=O)C(=O)N(C)c1ccccc1)C(=O)CC(F)(F)F` [Compound No. 27, N^1-{1-(3,3,3-trifluoro-N-methylpropanamido)-2-(S)-(3,4-dichlorophenyl)-4-[3-oxo-3,4-dihydro-2H-spiro(isoquinoline-1,4′-piperidin)-1′-yl]butan-2-yl}-N^1,N^2-dimethyl-N^2-phenyloxalamide hydrochloride] showed an IC50 of 6.7 nM.

The compound `CC(=O)N(C)C[C@](CCN1CCC2(CC1)NC(=O)Cc1ccccc12)(c1ccc(Cl)c(Cl)c1)N(C)C(=O)c1ccccc1` [Compound No. 36, N-{1-(N-methyl-acetamide)-2-(S)-(3,4-dichlorophenyl)-4-[3-oxo-3,4-dihydro-2H-spiro(isoquinoline-1,4′-piperidin)-1′-yl]butan-2-yl}-N-methylbenzamide hydrochloride] yielded an IC50 of 0.85 nM.

`CN(C[C@](CCN1CCC2(CC1)c1ccccc1C[S@+]2[O-])(c1ccc(Cl)c(Cl)c1)N(C)C(=O)c1ccccc1F)C(=O)CC(F)(F)F` [Compound No. 30, N-{1-(3,3,3-trifluoro-N-methylpropanamido)-2-(S)-(3,4-dichlorophenyl)-4-[spiro(benzo(c)thiophene-(2S)-oxido-1(3H),4′-piperidin)-1′-yl]butan-2-yl}-N-methyl-2-fluorobenzamide hydrochloride] had an IC50 of 1.2 nM.

For `CN(C[C@](CCN1CCC2(CC1)NC(=O)Cc1ccccc12)(c1ccc(Cl)c(Cl)c1)N(C)C(=O)C(=O)Nc1ccccc1)C(=O)C(F)(F)F` [Compound No. 29, N^1-{1-(2,2,2-trifluoro-N-methylacetamide)-2-(S)-(3,4-dichlorophenyl)-4-[3-oxo-3,4-dihydro-2H-spiro(isoquinoline-1,4′-piperidin)-1′-yl]butan-2-yl}-N^1-methyl-N^2-phenyloxalamide hydrochloride], the IC50 was determined as 4 nM.

Take `CCOC(=O)C(=O)N(C)C(CCN1CCC2(CC1)c1ccccc1C[C@@H]2O)(COCc1cc(OC)c(OC)c(OC)c1)c1ccc(Cl)c(Cl)c1` (mixture of isomers) [Compound No. 21, N-[1-(3,4-Dichloro-phenyl)-3-{spiro[((2S)-hydroxy)indan-1,4′-piperidine]}-1′-yl-1-(3,4,5-trimethoxy-benzyloxymethyl)-propyl]-N-methyl-oxamic acid ethyl ester hydrochloride]: the IC50 came to 8.7 nM.

As to `CN(C[C@](CCN1CCC2(CC1)NC(=O)Cc1ccccc12)(c1ccc(Cl)c(Cl)c1)N(C)C(=O)c1ccccc1)C(=O)C(F)(F)F` [Compound No. 23, N-{1-(2,2,2-trifluoro-N-methylacetamide)-2-(S)-(3,4-dichlorophenyl)-4-[3-oxo-3,4-dihydro-2H-spiro(isoquinoline-1,4′-piperidin)-1′-yl]butan-2-yl}-N-methylbenzamide hydrochloride], the IC50 was found to be 1.7 nM.

`CCC(=O)N(C)C[C@](CCN1CCC2(CC1)c1ccccc1C[S@+]2[O-])(c1ccc(Cl)c(Cl)c1)N(C)C(=O)c1ccccc1` [Compound No. 34, N-{1-(N-methyl-propionamide)-2-(S)-(3,4-dichlorophenyl)-4-[spiro(benzo(c)thiophene-(2S)-oxido-1(3H),4′-piperidin)-1′-yl]butan-2-yl}-N-methylbenzamide hydrochloride] displayed a half-inhibitory concentration (IC50) of 0.96 nM.

Regarding `CN(C[C@](CCN1CCC2(CC1)NC(=O)Cc1ccccc12)(c1ccc(Cl)c(Cl)c1)N(C)C(=O)c1ccc(C(F)(F)F)cc1)C(=O)C(F)(F)F` [Compound No. 24, N-{1-(2,2,2-trifluoro-N-methylacetamide)-2-(S)-(3,4-dichlorophenyl)-4-[3-oxo-3,4-dihydro-2H-spiro(isoquinoline-1,4′-piperidin)-1′-yl]butan-2-yl}-N-methyl-4-trifluoromethyl-benzamide hydrochloride], the IC50 was found to be 2.9 nM.

On to `CCC(=O)N(C)C[C@](CCN1CCC2(CC1)c1ccccc1C[S@+]2[O-])(c1ccc(Cl)c(Cl)c1)N(C)C(=O)C(=O)N(C)c1ccccc1` [Compound No. 35, N^1-{1-(N-methyl-propionamide)-2-(S)-(3,4-dichlorophenyl)-4-[spiro(benzo(c)thiophene-(2S)-oxido-1(3H),4′-piperidin)-1′-yl]butan-2-yl}-N^1,N^2-dimethyl-N^2-phenyloxalamide hydrochloride], for which the IC50 came out at 4.6 nM.

On to `CN(C[C@](CCN1CCC2(CC1)c1ccccc1C[S@+]2[O-])(c1ccc(Cl)c(Cl)c1)N(C)C(=O)c1ccccc1)C(=O)C(F)(F)F` [Compound No. 26, N-{1-(2,2,2-trifluoro-N-methylacetamide)-2-(S)-(3,4-dichlorophenyl)-4-[spiro(benzo(c)thiophene-(2S)-oxido-1(3H),4′-piperidin)-1′-yl]butan-2-yl}-N-methylbenzamide hydrochloride], for which the IC50 was 0.85 nM.

Source of the values: patent US7276511B2, “Benzylamine derivative” (Zeria Pharmaceutical Co., Ltd., priority 2003, dated 2007).
